Experimental data from US10159676B2, “Induction of tumor hypoxia for cancer therapy” (Virginia Commonwealth University, priority 2008, dated 2018).
Entries after “also recorded” stand apart in the source; their conditions may differ.

Columns and labels:
[1] = test system: UCI101 tumor xenografts; assay: Tumor necrosis in H&E sections three days after treatment; settings: tirapazamine 60 mg/kg ip, 60 min later stilbene 5c 50 mg/kg ip; sacrificed three days later
Protocol: Mice were sacrificed three days later and tumors were harvested for H&E section. […] The portion of tumor that stained darker is viable, whereas the portion in lighter color is the necrotic area.
After 60 min, stilbene 5c was administered intraperitoneally at 50 mg/kg, which has been established to be capable of inducing profound tumor hypoxia within minutes (FIG. 3). […] Mice were then sacrificed three days later. Tumors were harvested and the center portion of tumor was sliced and analyzed with histological section and H&E staining.

[2] = test system: UCI-101 ovarian cancer tumor xenografts; assay: Real-time measurement of tumor oxygen and blood flow (OxyLite/OxyFlo); type: in vivo, nude mice; settings: 50 mg/kg intraperitoneal
Protocol: FIG. 3. Tumor blood flow and oxygen content in tumor. Oxygen and blood flow were monitored by OxyFlo and OxyLite system (Optronix, Oxford, UK). Mice were anesthetized with isoflurane and a triple sensor that records temperature, oxygen and blood flow was inserted into tumor and left for 1 hour for recording. Shown are the results of three mice with similar size subcutaneous tumors derived from UCI-101 ovarian cancer cells. Top panels are oxygen level and lower panels are tumor blood flow. Timing of St5c injection was marked.
Nude mice were injected subcutaneously with UCI-101 ovarian cancer cells to form tumor xenografts. Tumor xenografts were subjected to oxygen and blood flow study when tumor size reached 8-10 mm in largest diameter. Tumor was punctured with 25 G needle to make a tunnel for insertion of sensor probe. The tip of the sensor probe was left in the center of the tumor. Tumor oxygen level and blood flow were determined by OxyLite 2000 dual channel monitoring system with “bare-fibre” type sensor probe, which is designed for measuring tissue oxygen, temperature and blood flow using laser Doppler technique (Optonix, oxford, UK). The measurement was done in a real time basis (100 measurements per second) and the oxygen level and tumor blood flow were recording continuously. Because the initial trauma induced by needle and insertion of sensor probe can interfere with blood flow and oxygenation, each mouse was recorded first without treatment for at least 20 min before the mice was injected intraperitoneally with the tested VDA cis-3, 4′,5-trimethoxy-3′-aminostilbene (stilbene 5c) at 50 mg/kg. The tumor blood flow and oxygen level was then recorded for another 20 min after treatment.
In this study, we performed proof of concept study with VDA stilbene 5c to confirm that stilbene 5c induce tumor hypoxia. […]
There are several issues that need to be considered in order to interpret the results. […] All mice were thus recorded for at least 20 min to record the pre-treatment baseline. […]

[3] = test system: UCI101 tumor xenografts; assay: Tumor and normal organ perfusion by DCE-MRI (gadolinium accumulation); type: in vivo, nude mice; settings: stilbene 5c 50 mg/kg intraperitoneal, 4 hours after injection, same mice before vs after
Protocol: FIGS. 1A and B. Study of tumor perfusion using accumulation of gadolinium at 30 min after gadolinium injection. (A) T1-weighted images before and after stilbene 5c treatment in the same mouse. Nude mice with established subcutaneously UCI101 tumor xenografts were analyzed with DCE-MRI for tumor perfusion. DCE-MRI images were collected for 30 min after injection of gadolinium (OmniScan) into tail veins. The same mice were studied before and after stilbene 5c treatment to avoid individual variation. The left panels show the T1-weighted images before injection of gadolinium. The right panels show images at 30 min after injection of gadolinium. […] (B) Average of calculated gadolinium concentrations in tumor and muscle before and after stilbene 5c treatment. […]
Nude mice with tumor xenografts were anesthetized with 1% isoflurane and mixed oxygen. […] After the initial rate is established, subsequent MRI studies focused on the sustained increase in gadolinium signals, which also provide qualitative and quantitative information for tissue perfusion. […]
Stilbene 5c was investigated to examine whether it can suppress tumor blood flow and eventually lead to tumor hypoxia. […] After injected with 20 μl of gadolinium (OmniScan) via the tail vein, mice were analyzed with a rapid sequence MRI every minute for total of 30 min. […]

For `COc1cc(/C=C\c2ccc(OC)c(N)c2)cc(OC)c1` [stilbene 5c, cis-3, 4′, 5-trimethoxy-3′-aminostilbene], the “area of tumor necrosis (H&E, qualitative)” value [1] was “very small areas of tumor necrosis”, the “tumor oxygen level after treatment” value ([2]; all three mice, within 20-30 min recording, baseline 15-60 mm Hg) was “less than 10 mm Hg” and the “tumor blood flow after treatment, of the level before stilbene treatment” value ([2]; mice #1 and 3) was “less than 25%”. The “tumor blood flow change” value ([2]; mouse #2 (low baseline flow 200-300)) was “significant in the beginning but subsequently recovered in some degree though still lower than baseline”, the “concentration of gadolinium in tumor after stilbene 5c treatment (decreased to, average)” value ([3]; 30 min after gadolinium, 6 mice) was 62.8% and the “concentration of gadolinium in muscle after stilbene 5c treatment” value [3] was “no significant change; also recorded: did not change”.
